US20240299698A1, “PREVENTION AND TREATMENT OF POST-OPERATIVE COGNITIVE DYSFUNCTION (POCD)” (Noetix Pharma LLC, priority 2022, published 2024)

Assays:
[1] = system: mouse model of (POCD); test: Novel object recognition testing in laparotomy mouse model of POCD; assay type: in vivo, Male C57BI/6 mice; settings: for novel object preference, 24-hour (long term) testing: PSD6
Excerpt: (§1) To induce POCD, mice were anesthetized with isoflurane and maintained at a surgical plane of anesthesia (2-2.5%). The abdomen was shaved and cleaned/disinfected with both betadine and ethanol (70%). A 1.5 cm vertical incision was made along the midline of the abdomen, perforating the skin and the peritoneal cavity. A sterile blunt probe was inserted into the cavity, and the abdominal viscera and musculature were manipulated for five minutes. Abdominal muscles and skin were sutured, polysporin and topical lidocaine were applied to the incision site, and buprenorphine (0.1 mg/kg s.c.) was administered. Animals were placed into a clean, pre-warmed home cage for recovery and housed singly thereafter.
Novel object recognition (NOR) is a tool used to assess the ability of mice to differentiate between familiar and novel objects (i.e., recognition memory). The paradigm relies on the tendency of rodents to interact more with a novel object than a familiar one. In this task, acclimation to the test arena was provided on the day prior to training (PSD4) and the initial test trial (short-term recall), presented one hour following training on PSD5. The second test trial (long-term recall) was performed 24 hours later (PSD6). Object recognition may be determined through evaluation of the percent time spent exploring a novel object relative to the total time spent exploring both novel and familiar objects; normal animals will spend more time exploring a novel object. If the exploration of both objects is the same, this behavior can be a sign of a recognition memory deficit.
The acclimation process was as follows: 1. The animal was brought into the testing room in a transfer cage. 2. Video recording was begun and the animal's ID card was recorded. 3. The mouse was placed in the center of the arena and allowed to explore freely for 5 minutes. 4. The mouse was returned to its home cage.
The paired object training process was as follows: 1. The animal was brought into the testing room in a transfer cage. 2. Video recording was begun and the animal's ID card was recorded. 3. The mouse was placed in the center of the arena and allowed to explore freely for 10 minutes. 4. The mouse was returned to its home cage.
The novel object (1 hour) test was performed as follows: 1. The arena was prepared with one original object (block) and one novel object (ball) present. 2. The animal was brought into the testing room in a transfer cage. 3. Video recording was begun and the animal's ID card was recorded. 4. The mouse was placed in the center of the arena and allowed to explore for 10 minutes. 5. The mouse was returned to its home cage.
The novel object (24 hour) test was performed as follows: 1. The arena was prepared with one original object (block) and one novel object (dome) present. 2. The animal was brought into the testing room in a transfer cage. 3. Video recording was begun and the animal's ID card was recorded. 4. The mouse was placed in the center of the arena and allowed to explore for 10 minutes. 5. The mouse was returned to its home cage.

[2] = system: mouse model of (POCD); test: Morris water maze testing and probe trial in laparotomy mouse model of POCD; assay type: in vivo, Male C57BI/6 mice; settings: PSD7
Excerpt: as §1
Morris water maze testing is a well-established method for evaluating spatial learning and memory. To navigate this maze, the mouse must use extra-maze cues to locate a hidden platform and escape from the water. Testing was performed on PSD7. Mice were given two blocks of four 60 sec trials to find the hidden platform, with latency to reach the platform compared between blocks as a measure of learning/memory processes. Swim speed was evaluated to assess locomotor capabilities. On PSD8 (i.e., 24 hours later), mice were reintroduced into the maze without the platform present for a one-minute probe trial to assess reference memory.
The testing protocol was as follows: 1. The animal was brought into the testing room in a transfer cage. 2. Video recording was begun and the animal's ID card recorded. 3. The mouse was gently placed (i.e., not dropped) into the water at the appropriate start location (N, S, E, or W) facing the pool wall. 4. For 60 seconds, the mouse was allowed to locate and climb onto the submerged platform. If the mouse was unable to locate the platform within the allotted time, it was gently guided there and assigned a score of 61 seconds. 5. The mouse was allowed 60 seconds to recover on the platform and observe the extra-maze cues. If the moused jumped into the water, it was immediately retrieved and placed back on the platform for the remaining duration of the inter-trial interval. 6. Steps 3-5 were repeated for a total of 4 trials (Block 1). 7. The mouse was returned to the transfer cage lined with a dry towel. It was allowed 5 minutes to rest. 8 Steps 3-5 were repeated for a total of 4 trials (Block 2). 9. The mouse was gently dried and returned to its home cage.
The probe session was conducted as follows: 1. The animal was brought into the testing room in a transfer cage. 2. Video recording was begun and the animal's ID card recorded. 3. The mouse was gently placed (i.e., not dropped) into the water at the appropriate start location (N, S, E, or W) facing the pool wall. 4. The mouse was allowed to swim freely for 60 seconds. 5. The mouse was gently dried and returned to its home cage.

For `Cc1ccc(=O)n(-c2ccccc2)c1` [pirfenidone, 5-methyl-1-phenyl-2-(1H)-pyridone], the “preference index, within-group 1-hour vs 24-hour” value ([1]; Acute, p=0.762, paired t-test (statistically equivalent)) was “retained memory for the familiar object”, the “preference index, within-group 1-hour vs 24-hour” value ([1]; Chronic, p=0.828, paired t-test (statistically equivalent)) was “retained memory for the familiar object” and the “total object exploration time, 1 hour test compared with training” value ([1]; PSD5, Acute, p=0.01, within group paired t-test) was “decrease in total time spent interacting with objects”. For the same compound, the “total object exploration time, 1 hour test compared with training” value ([1]; PSD5, Chronic, p=0.04, within group paired t-test) was “decrease in total time spent interacting with objects”, the “novel object preference, 1-hour (short term) testing, between groups” value ([1]; PSD5, all treatment groups, p=0.376, one-way ANOVA) was “no main effect for treatment” and the “novel object preference, 24-hour (long term) testing” value ([1]; Acute vs Disease Controls, p=0.08, LSD post-hoc) was “trend toward increased preference”. For the same compound, the “novel object preference, 24-hour (long term) testing” value ([1]; Chronic vs Disease Controls, p=0.09, LSD post-hoc) was “trend toward increased preference”, the “latency to platform, overall (block x treatment)” value ([2]; Acute vs Disease Controls, p=0.028) was “statistically significant decrease in latency to platform” and the “latency to platform, Block 1” value ([2]; Acute vs Disease Controls, p=0.04, Tukey's HSD) was “found the platform faster than Disease Controls only”. The “decrease in time to platform between blocks (spatial memory)” value ([2]; Acute, p=0.61, paired t-test) was “not seen”, the “latency to platform, Block 1” value ([2]; Chronic compared to both Disease and Normal Controls, p=0.02 and p=0.03, Tukey's HSD) was “statistically significant decrease in latency to platform” and the “latency to platform, overall (block x treatment)” value ([2]; Chronic vs Disease Controls, p=0.052) was “statistically significant decrease in latency to platform”. The “decrease in time to platform between blocks (spatial memory)” value ([2]; Chronic, p=0.54, paired t-test) was “not seen” and the “latency to platform, Block 2, between groups” value ([2]; all groups, p=0.117, one-way ANOVA) was “no between groups main effect”.
